From article PMC7023064, “Design, Synthesis, and Evaluation of Novel 2-Methoxyestradiol Derivatives as Apoptotic Inducers through an Intrinsic Apoptosis Pathway” (Biomolecules, 2020)

Experiments:
MCF-7 cells [1] = assay: Mitochondrial membrane potential analysis (JC-1, flow cytometry); format: cell-based, human; conditions: 72 h, JC-1 (lower right quadrant)
Method: MCF-7 cells were incubated in triplicate and treated with compound 11/12a for 72 h. The cells were washed with PBS and stained with JC-1 dye (Keygen, KGA601) under dark conditions according to the manufacturer’s instructions. After incubation, the cells were washed twice with PBS, and the percentage of cells with collapsed or healthy mitochondrial membrane potentials (MMP) was monitored by flow cytometry analysis (FACS Calibur Becton-Dickinson, San Jose, California, USA).

[2] = system: MCF-7 and MDA-MB-231 cell lines; assay: MTT assay, summary over tested tumor cells; format: cell-based, human; conditions: for selectivity towards cancerous cell lines vs healthy cell line: MCF-7 and MDA-MB-231 vs L-O2
Method: (§1) Human breast adenocarcinoma MCF-7 cell lines, human breast cancer MDA-MB-231 cell lines, and the normal human liver L-O2 cell lines were provided by Nanjing KeyGen Biotech Co. Ltd. (Nanjing, China). MCF-7 cells were cultured in a base medium (90% RPMI-1640 and 10% FBS) at 37 °C, 5% CO2 and a saturated humidity atmosphere. MDA-MB-231 cells were cultured in a base medium (90% […] and 10% FBS) at 37 °C, 5% CO2 and a saturated humidity atmosphere. L-O2 cells were cultured in a base medium (90% DMEM and 10% FBS) at 37 °C, 5% CO2 and a saturated humidity atmosphere.
(§2) The cytotoxicity of the tested compounds was determined using the 3-(4,5-dimethyl-2-thiazolyl)-2,5-diphenyl-2-H-tetrazolium bromide (MTT) assay. Cells were seeded in 96-well plates and incubated in a 5% CO2 incubator at 37 °C. When the cells adhered, compounds at different concentrations were added to every well. After incubation for another 72 h, MTT solution (5 mg/mL) was added into each well and cells were incubated for an additional 4 h. The viable cells were stained with MTT and scanned with an electrophotometer at 570 nm. Each concentration treatment was done in triplicate wells. The half maximal inhibitory concentration (IC50) values were estimated by fitting the inhibition data to a dose-dependent curve using a logistic derivative equation.

[3] = system: MCF-7 breast cancer cells; assay: Real-time polymerase chain reaction of apoptosis genes; format: cell-based, human; conditions: 5, 10, and 20 μM, GAPDH as control
Method: RNA was isolated using Trizol Reagent (Invitrogen, Carlsbad, California, USA). cDNA was made via the manufacturer’s instructions with the first chain of a cDNA synthesizing kit (Fermentas, Lithuania). Real-time polymerase chain reaction (RT-PCR) was performed on a Da An Gene DA7600 Real Time machine using Da An Gene incorporation (ZhongShan, China). The 2^−ΔΔCT method was used to calculate the relative levels of gene expression using Da An Gene DA7600 QPCR software v3.00 (Da An Gene). The GAPDH (human) expression was used as the internal control. A standard melting-curve cycle was used to confirm the quality of amplification. The reactions were performed in triplicate for each sample. The gene-specific primers were designed with the Primer5 BLAST software by GenScript Co., Ltd. (Nanjing, China): • 1 GAPDH (human): primer (122 bp), • Sense primer: 5′ […] 3’ • Antisense primer: 5′ […] 3′ • 2 Apaf-1 (human): primer (134 bp), • Sense primer: 5′ […] 3′ • Antisense primer: 5′ […] 3′ • 3 Bax (human): primer (112 bp), • Sense primer: 5 ′TTGCTTCAGGGTTTCATCC 3′ • Antisense primer: 5′ […] 3′ • 4 Bcl-2 (human): primer (116 bp), • Sense primer: 5′ […] 3′ • Antisense primer: 5′ […] 3′ • 5 Bcl-xL (human): primer (124 bp), • Sense primer: 5′ […] 3′ • Antisense primer: 5′ […] 3′ • 6 Caspase-3 (human): primer (131 bp), • Sense primer: 5′ […] 3′ • Antisense primer: 5′ […] 3′ • 7 Caspase-8 (human): primer (122 bp), • Sense primer: 5′ […] 3′ • Antisense primer: 5′ […] 3′ • 8 Caspase-9 (human): primer (136 bp), • Sense primer: 5′ […] 3′ • Antisense primer: 5′ […] 3′ • 9 Cytochrome c (human): primer (127 bp), • Sense primer: 5′ […] 3′ • Antisense primer: 5′ […] 3′

[4] = system: human breast cancer MDA-MB-231 cell lines; assay: MTT cytotoxicity assay, MDA-MB-231; format: cell-based; conditions: mean ± SD of three experiments
Method: as §1, §2

MCF-7 cells [5] = assay: Hoechst 33258 staining; format: cell-based, human; conditions: 0, 5, 10, and 20 μM, 72 h; at higher concentrations
Method: The nuclear morphological changes and apoptotic effects induced by compound 11/12a were detected using Hoechst 33,258 staining. Cells grown on a sterile cover slip were treated with 11/12a for 72 h in six-well tissue culture plates. Cells were collected and mounted on a slide, fixed for 30 min with 4% paraformaldehyde, and washed three times with PBS. Then, cells were stained with Hoechst 33,258 (2 mg/mL in PBS) for 10 min at room temperature in the dark. The cells were subsequently washed three times with PBS and observed with a fluorescence microscope.

MCF-7 cells [6] = assay: Cell apoptosis analysis (Annexin V-APC/7-AAD double staining); format: cell-based, human; conditions: 72 h
Method: MCF-7 cells at a density of 2 × 10^5 cells/well were seeded on each well of 6-well plates and allowed to grow overnight. Then the cells were treated with compound 11/12a (5, 10, and 20 μM) for 72 h, while cells without treatment were used as control group. The treated cells were trypsinized and washed with cold PBS twice, then centrifuged at 2000 rpm for 5 min and resuspended in 500 μL annexin V binding buffer. 5 μL of Annexin V- allophycocyanin (APC) was added, and the mixture was incubated in the dark at 25 °C for 15 min. Then, 5 μL of 7-AAD was added just prior to acquisition. Apoptosis was analyzed by Annexin V-APC and 7-AAD double staining by flow cytometry (FACS Calibur Becton-Dickinson, San Jose, Califormia, USA).

[7] = system: normal human liver L-O2 cell lines; assay: MTT cytotoxicity assay, L-O2; format: cell-based; conditions: mean ± SD of three experiments, No = No inhibition detected
Method: as §1, §2

Row | Compound | MCF-7 cells with collapsed MMP (MCF-7 cells [1]; 5 μM) | MCF-7 cells with collapsed MMP (MCF-7 cells [1]; 10 μM) | MCF-7 cells with collapsed MMP (MCF-7 cells [1]; 20 μM) | IC50 ([2]; Homo sapiens, MCF-7 and MDA-MB-231, read-out: IC50, anti-proliferative activity against tested tumor cells) | selectivity towards cancerous cell lines vs healthy cell line [2] | mRNA expression levels of Apaf-1, Bax, caspase-3, caspase-8, caspase-9, and cytochrome c [3] | mRNA expression levels of Bcl-2 and Bcl-xL [3] | IC50 ([4]; Homo sapiens, MDA-MB-231, 72 h) | Hoechst 33258 fluorescence / cell morphology (MCF-7 cells [5]) | total early and late apoptotic cells (MCF-7 cells [6]; 5 μM) | total early and late apoptotic cells (MCF-7 cells [6]; 10 μM) | total early and late apoptotic cells (MCF-7 cells [6]; 20 μM) | IC50 ([7]; Homo sapiens, L02, 72 h) | IC50 ([4]; 72 h) | IC50 ([7]; 72 h)
1 | COc1cc2c(cc1O)CC[C@@H]1[C@@H]2CC[C@]2(C)[C@@H](OCCCCCCCCn3c(=O)ccn([C@@H]4O[C@H](CO)[C@@H](O)[C@H]4O)c3=O)CC[C@@H]12 [Compound 11, 17 β-[8-(1-β-D-Ribofuranosyluracil-3-yl)-Octyloxy]-2-Methoxy-Estra-1,3,5(10)-Triene-3-ol] | 7.95% | 14.13% | 38.88% | 3.89 to 16.7 µM | ~7 fold | upregulated | downregulated | 14 ± 1.08 µM | stronger blue fluorescence | 13.21% | 33.24% | 67.74% | > 100 µM |  | 
2 | 17 β-[6-(Uracil-3-yl)-Hexyloxy]-2-Methoxy-Estra-1,3,5(10)-Triene-3-ol [Compound 12a] | 8.78% | 14.56% | 39.75% |  | about 6 fold | upregulated | downregulated |  | stronger blue fluorescence | 12.1% | 30.86% | 67.28% |  | 13 ± 0.38 µM | 69.3 ± 4.37 µM
